Tests used:
Format in all cases: in vivo
[1] = test system: ragweed (common ragweed, Ambrosia elatior); assay: Test A preemergence, visual plant response rating; conditions: for Ragweed plant response rating: 125 g ai/ha, preemergence, 0 to 100 scale, 0 no effect, 100 complete control; for Ragweed plant response rating (0 to 100 scale): 500 g ai/ha Preemergence, approx. 10 days
Summary of the method: (§1)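 Preemergence: seeds in loam/sand blend given directed soil spray of compound in non-phytotoxic solvent with surfactant. Postemergence: plants 2–10 cm, one- to two-leaf stage, sprayed with same formulation. Visual injury rated vs untreated controls after ~10 days in greenhouse, 0 (no effect) to 100 (complete control).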

[2] = test system: pigweed (Amaranthus retroflexus); assay: Test A preemergence, visual plant response rating; conditions: for Pigweed plant response rating: 125 g ai/ha, preemergence, 0 to 100 scale, 0 no effect, 100 complete control; for Pigweed plant response rating (0 to 100 scale): 500 g ai/ha Preemergence, approx. 10 days
Summary of the method: as §1

[3] = test system: barnyardgrass (Echinochloa crus-galli); assay: Test A preemergence, visual plant response rating; conditions: for Barnyardgrass plant response rating: 125 g ai/ha, preemergence, 0 to 100 scale, 0 no effect, 100 complete control; for Barnyardgrass plant response rating (0 to 100 scale): 500 g ai/ha Preemergence, approx. 10 days
Summary of the method: as §1

[4] = test system: Italian ryegrass (Lolium multiflorum); assay: Test A preemergence, visual plant response rating; conditions: for Ryegrass, Italian plant response rating: 125 g ai/ha, preemergence, 0 to 100 scale, 0 no effect, 100 complete control; for Ryegrass, Italian plant response rating (0 to 100 scale): 500 g ai/ha Preemergence, approx. 10 days
Summary of the method: as §1

[5] = test system: foxtail, giant (giant foxtail, Setaria faberii); assay: Test A preemergence, visual plant response rating; conditions: for Foxtail, Giant plant response rating: 125 g ai/ha, preemergence, 0 to 100 scale, 0 no effect, 100 complete control; for Foxtail, Giant plant response rating (0 to 100 scale): 500 g ai/ha Preemergence, approx. 10 days
Summary of the method: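 Compared with untreated controls, treated plants received a visual injury score on a 0–100 scale around 10 days after application. The compound, in a non-phytotoxic solvent with surfactant, was given as a preemergence soil spray or postemergence at the one- to two-leaf stage.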

kochia (Kochia scoparia) [6] = assay: Test A preemergence, visual plant response rating; conditions: for Kochia plant response rating: 125 g ai/ha, preemergence, 0 to 100 scale, 0 no effect, 100 complete control; for Kochia plant response rating (0 to 100 scale): 500 g ai/ha Preemergence, approx. 10 days
Summary of the method: as §1

[7] = test system: galium (catchweed bedstraw, Galium aparine); assay: Test A postemergence, visual plant response rating; conditions: for Galium plant response rating (0 to 100 scale): 500 g ai/ha, postemergence, 0 is no effect, 100 is complete control; for Galium plant response rating: Postemergence, 125 g ai/ha, 0 to 100 scale (0 no effect, 100 complete control)
Summary of the method: as §1

[8] = test system: ragweed (common ragweed, Ambrosia elatior); assay: Test A postemergence, visual plant response rating; conditions: for Ragweed plant response rating (0 to 100 scale): 500 g ai/ha, postemergence, 0 is no effect, 100 is complete control; for Ragweed plant response rating: Postemergence, 125 g ai/ha, 0 to 100 scale (0 no effect, 100 complete control)
Summary of the method: as §1

[9] = test system: pigweed (Amaranthus retroflexus); assay: Test A postemergence, visual plant response rating; conditions: for Pigweed plant response rating (0 to 100 scale): 500 g ai/ha, postemergence, 0 is no effect, 100 is complete control; for Pigweed plant response rating: Postemergence, 125 g ai/ha, 0 to 100 scale (0 no effect, 100 complete control)
Summary of the method: as §1

[10] = test system: barnyardgrass (Echinochloa crus-galli); assay: Test A postemergence, visual plant response rating; conditions: for Barnyardgrass plant response rating (0 to 100 scale): 500 g ai/ha, postemergence, 0 is no effect, 100 is complete control; for Barnyardgrass plant response rating: Postemergence, 125 g ai/ha, 0 to 100 scale (0 no effect, 100 complete control)
Summary of the method: as §1

[11] = test system: blackgrass (Alopecurus myosuroides); assay: Test A postemergence, visual plant response rating; conditions: for Blackgrass plant response rating (0 to 100 scale): 500 g ai/ha, postemergence, 0 is no effect, 100 is complete control; for Blackgrass plant response rating: Postemergence, 125 g ai/ha, 0 to 100 scale (0 no effect, 100 complete control)
Summary of the method: as §1

corn (Zea mays) = assay: Test A postemergence, visual plant response rating; conditions: for Corn plant response rating (0 to 100 scale): 500 g ai/ha, postemergence, 0 is no effect, 100 is complete control; for Corn plant response rating: Postemergence, 125 g ai/ha, 0 to 100 scale (0 no effect, 100 complete control)
Summary of the method: as §1

[12] = test system: Italian ryegrass (Lolium multiflorum); assay: Test A postemergence, visual plant response rating; conditions: for Ryegrass, Italian plant response rating (0 to 100 scale): 500 g ai/ha, postemergence, 0 is no effect, 100 is complete control; for Ryegrass, Italian plant response rating: Postemergence, 125 g ai/ha, 0 to 100 scale (0 no effect, 100 complete control)
Summary of the method: as §1

[13] = test system: foxtail, giant (giant foxtail, Setaria faberii); assay: Test A postemergence, visual plant response rating; conditions: for Foxtail, Giant plant response rating (0 to 100 scale): 500 g ai/ha, postemergence, 0 is no effect, 100 is complete control; for Foxtail, Giant plant response rating: Postemergence, 125 g ai/ha, 0 to 100 scale (0 no effect, 100 complete control)
Summary of the method: as §1

[14] = test system: wheat (Triticum aestivum); assay: Test A postemergence, visual plant response rating; conditions: for Wheat plant response rating (0 to 100 scale): 500 g ai/ha, postemergence, 0 is no effect, 100 is complete control
Summary of the method: as §1

kochia (Kochia scoparia) [15] = assay: Test A postemergence, visual plant response rating; conditions: for Kochia plant response rating (0 to 100 scale): 500 g ai/ha, postemergence, 0 is no effect, 100 is complete control; for Kochia plant response rating: Postemergence, 125 g ai/ha, 0 to 100 scale (0 no effect, 100 complete control)
Summary of the method: as §1

[16] = test system: sedge, umbrella (small-flower umbrella sedge, Cyperus difformis); assay: Test B flooded paddy test, visual plant response rating; conditions: 250 g ai/ha, Flood, applied to paddy water, 2-leaf stage, evaluated after 13 to 15 days
Summary of the method: (§2)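 Compounds added straight into paddy water of pots flooded to 3 cm, with 2-leaf-stage plants of the four species; water level held throughout.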

[17] = test system: barnyardgrass (Echinochloa crus-galli); assay: as above; conditions: 250 g ai/ha, Flood, applied to paddy water, 2-leaf stage, evaluated after 13 to 15 days
Summary of the method: as §2

[18] = test system: ducksalad (Heteranhera limosa); assay: as above; conditions: 250 g ai/ha, Flood, applied to paddy water, 2-leaf stage, evaluated after 13 to 15 days
Summary of the method: as §2

rice (Oryza sativa) = assay: as above; conditions: 250 g ai/ha, Flood, applied to paddy water, 2-leaf stage, evaluated after 13 to 15 days
Summary of the method: as §2

| SMILES | Ragweed plant response rating [1] | Ragweed plant response rating (0 to 100 scale) [1] | Pigweed plant response rating [2] | Pigweed plant response rating (0 to 100 scale) [2] | Barnyardgrass plant response rating [3] | Barnyardgrass plant response rating (0 to 100 scale) [3] | Ryegrass, Italian plant response rating [4] | Ryegrass, Italian plant response rating (0 to 100 scale) [4] | Foxtail, Giant plant response rating [5] | Foxtail, Giant plant response rating (0 to 100 scale) [5] | Kochia plant response rating (kochia (Kochia scoparia) [6]) | Kochia plant response rating (0 to 100 scale) (kochia (Kochia scoparia) [6]) | Galium plant response rating (0 to 100 scale) [7] | Galium plant response rating [7] | Ragweed plant response rating (0 to 100 scale) [8] | Ragweed plant response rating [8] | Pigweed plant response rating (0 to 100 scale) [9] | Pigweed plant response rating [9] | Barnyardgrass plant response rating (0 to 100 scale) [10] | Barnyardgrass plant response rating [10] | other results |
| --- | --- | --- | --- | --- | --- | --- | --- | --- | --- | --- | --- | --- | --- | --- | --- | --- | --- | --- | --- | --- | --- |
| CON=C(c1c(O)c(C)nn(C)c1=O)c1cccc2ccoc12 [Compound 60] | 0 | 30 | 0 | 30 | 0 | 0 | 0 | 40 | 10 | 10 | 0 | 0 | 70 | 60 | 40 | 20 | 90 | 50 | 0 | 0 | Blackgrass plant response rating (0 to 100 scale) [11]: 10; Blackgrass plant response rating [11]: 0; Corn plant response rating (0 to 100 scale) (corn (Zea mays)): 0; Corn plant response rating (corn (Zea mays)): 0; Ryegrass, Italian plant response rating (0 to 100 scale) [12]: 20; Ryegrass, Italian plant response rating [12]: 10; Foxtail, Giant plant response rating (0 to 100 scale) [13]: 30; Foxtail, Giant plant response rating [13]: 0; Wheat plant response rating (0 to 100 scale) [14]: 40; Kochia plant response rating (0 to 100 scale) (kochia (Kochia scoparia) [15]): 50; Kochia plant response rating (kochia (Kochia scoparia) [15]): 30; Plant response rating, Sedge, Umbrella (0 to 100 scale, 0 is no effect, 100 is complete control) [16]: 0; Plant response rating, Barnyardgrass (0 to 100 scale, 0 is no effect, 100 is complete control) [17]: 0; Plant response rating, Ducksalad (0 to 100 scale, 0 is no effect, 100 is complete control) [18]: 0; Plant response rating, Rice (0 to 100 scale, 0 is no effect, 100 is complete control) (rice (Oryza sativa)): 0 |
| CON=C(c1c(O)c(C)nn(C)c1=O)c1cccc2ccoc12 [Compound 61] | 0 | 70 | 0 | 0 | 0 | 0 | 30 | 80 | 0 | 10 | 0 | 0 | 80 | 60 | 30 | 10 | 80 | 50 | 20 | 0 | Blackgrass plant response rating (0 to 100 scale) [11]: 20; Blackgrass plant response rating [11]: 10; Corn plant response rating (0 to 100 scale) (corn (Zea mays)): 0; Corn plant response rating (corn (Zea mays)): 0; Ryegrass, Italian plant response rating (0 to 100 scale) [12]: 70; Ryegrass, Italian plant response rating [12]: 10; Foxtail, Giant plant response rating (0 to 100 scale) [13]: 20; Foxtail, Giant plant response rating [13]: 0; Wheat plant response rating (0 to 100 scale) [14]: 40; Wheat plant response rating ([14]; Postemergence, 125 g ai/ha, 0 to 100 scale (0 no effect, 100 complete control)): 30; Kochia plant response rating (0 to 100 scale) (kochia (Kochia scoparia) [15]): 50; Kochia plant response rating (kochia (Kochia scoparia) [15]): 30; Plant response rating, Sedge, Umbrella (0 to 100 scale, 0 is no effect, 100 is complete control) [16]: 0; Plant response rating, Barnyardgrass (0 to 100 scale, 0 is no effect, 100 is complete control) [17]: 0; Plant response rating, Ducksalad (0 to 100 scale, 0 is no effect, 100 is complete control) [18]: 0; Plant response rating, Rice (0 to 100 scale, 0 is no effect, 100 is complete control) (rice (Oryza sativa)): 0 |
